Laboratory results published in ChEMBL document CHEMBL2046417, “Synthesis and evaluation of pyridylbenzofuran, pyridylbenzothiazole and pyridylbenzoxazole derivatives as ¹⁸F-PET imaging agents for β-amyloid plaques” (Bioorg Med Chem Lett, 2012).
pIC50: −log10 of the molar value. The source made the active and inactive calls. No cut-off for these calls is given here.

Columns and labels:
[1] = system: Mus musculus; assay: Binding affinity to amyloid beta(1 to 40) in Tg2576 mouse plaque at 150 nmol/kg, iv after 10 mins by autoradiography analysis; type: functional, organism-based
[2] = target: T1, Amyloid-beta precursor protein (Homo sapiens, UniProt P05067); assay: Binding affinity to amyloid beta(1 to 40) in cortical section isolated from Alzheimer disease patient at 1 nM by autoradiographic analysis
[3] = target: T1, Amyloid-beta precursor protein; assay: Displacement of [3H]AZD2184 from human amyloid beta(1 to 40)
[4] = target: T1, Amyloid-beta precursor protein; assay: Binding affinity to amyloid beta(1 to 40) in cortical section isolated from Alzheimer disease patient by autoradiographic analysis; settings: tested as the 3H-labelled form

T1 sequence (P05067 whole entry): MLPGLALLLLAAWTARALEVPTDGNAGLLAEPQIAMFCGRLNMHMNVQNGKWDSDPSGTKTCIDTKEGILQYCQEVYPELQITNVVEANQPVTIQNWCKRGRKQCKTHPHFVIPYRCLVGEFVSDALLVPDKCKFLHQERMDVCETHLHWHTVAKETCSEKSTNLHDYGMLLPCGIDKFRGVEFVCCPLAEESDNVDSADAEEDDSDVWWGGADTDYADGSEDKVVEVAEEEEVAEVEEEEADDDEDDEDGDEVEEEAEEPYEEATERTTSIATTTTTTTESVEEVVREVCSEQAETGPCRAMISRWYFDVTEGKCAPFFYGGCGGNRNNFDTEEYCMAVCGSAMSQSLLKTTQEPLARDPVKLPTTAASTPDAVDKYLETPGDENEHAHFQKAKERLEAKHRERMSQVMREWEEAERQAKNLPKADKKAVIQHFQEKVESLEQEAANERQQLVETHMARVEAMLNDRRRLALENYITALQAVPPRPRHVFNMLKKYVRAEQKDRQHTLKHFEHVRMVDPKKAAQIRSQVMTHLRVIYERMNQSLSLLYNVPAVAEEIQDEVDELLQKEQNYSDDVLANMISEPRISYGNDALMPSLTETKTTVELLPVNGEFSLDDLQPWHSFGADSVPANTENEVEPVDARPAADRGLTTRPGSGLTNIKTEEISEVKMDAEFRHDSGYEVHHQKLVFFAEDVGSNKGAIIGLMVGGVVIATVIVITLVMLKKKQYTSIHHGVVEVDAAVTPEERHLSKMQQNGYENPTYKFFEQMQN

SMILES | pIC50 [3] | further results
CNc1ccc(-c2nc3ccc(O)cc3s2)cc1F [FLUTEMETAMOL] | 7.62 | Activity [1]: Active; Activity [2]: Active
NC(=O)c1ccc(-c2cc3cc(O)ccc3o2)c(F)n1 | 7.36 | 
CNc1ncc(-c2cc3cc(O)ccc3o2)cc1F | 7.52 | 
CNc1ccc(-c2cc3cc(O)ccc3o2)nc1F | 7.46 | 
CNc1ccc(-c2nc3ccc(O)cc3s2)c(F)n1 | 6.91 | 
COc1ccc2nc(-c3ccc(NCCF)nc3)oc2c1 | 7.46 | Activity [4]: inactive
CNc1ccc(-c2cc3cc(O)ccc3o2)c(F)n1 [FLUTAFURANOL] | 7.62 | Activity ([1]; tested as the 3H-labelled form): Active; Activity ([2]; tested as the 3H-labelled form): Active
CNc1ncc(-c2nc3ccc(O)cc3s2)cc1F | 7.01 | 
CNc1ccc(-c2cc3cc(C(N)=O)ccc3o2)nc1F | 7.49 | 
Oc1ccc2nc(-c3ccc(NCCF)nc3)sc2c1 | 7.48 | 
Oc1ccc2nc(-c3ccc(NCCCF)nc3)sc2c1 | 7.18 | 
CNc1ccc(-c2nc3ccc(O)cc3s2)cn1 | 7.66 | 
CNc1ccc(-c2nc3ccc(O)cc3s2)nc1F | 7.36 | 
COc1ccc2oc(-c3ccc(C(N)=O)nc3F)cc2c1 | 7.49 | 
Oc1ccc2nc(-c3ccc(NCCCF)nc3)oc2c1 | 6.40 | 
CNc1ccc(-c2nc3ccc(OC)cc3s2)c(F)n1 | 7.85 | 
Oc1ccc2nc(-c3ccc(NCCF)nc3)oc2c1 | 6.80 | 
CNc1ccc(-c2cc3cc(C(N)=O)ccc3o2)c(F)n1 | 7.72 | 
